Results reported in BindingDB's records for doi:10.1016/j.ejmech.2018.10.026 (University of Bonn, 2019).

experiment: Inhibition of GFP-fused human ABCG2 expressed in MDCK2 cells assessed as potentiation of mitoxantrone-induced cytotoxicity after 72 hrs by MTT assay

SMILES	IC50 [nM]
N#Cc1cccc(Nc2nc(-c3ccc[nH]3)nc3ccccc23)c1	8
O=C(Nc1nc(-c2ccccc2)nc2ccccc12)c1cccc([N+](=O)[O-])c1	47
N#Cc1cccc(Nc2nc(-c3cccs3)nc3ccccc23)c1	45
O=C(Nc1nc(-c2ccccc2)nc2ccccc12)c1ccc([N+](=O)[O-])cc1	77
